Experiment [1] deals with T1, HEK-293 cells transfected with dox-inducible human wild type FGFR3 (Homo sapiens (Human), UniProt P22607). As to the kind of experiment: FGFR3 pERK cell assay. It is filed as cell-based. The conditions noted are these: HEK-293 dox-inducible FGFR3, 1 hour compound, 100 ng/ml FGF-acidic; maximum concentration 5 μM. In short, it runs like this:
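Doxycycline-induced cells preincubated 1 h at 37 °C with compound (1:3 dilutions, top 5 μM final), then stimulated 5 min with 100 ng/ml FGF-acidic. Lysate phospho-ERK1/2 measured by MSD sandwich assay; IC50 at 50 POC from 4-parameter fit, normalised to no-compound and control-compound wells.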

Experiment [2] has as its target T1, HEK-293 cells transfected with dox-inducible human wild type FGFR3. Nature of the experiment: FGFR3 pFGFR cell assay (ELISA). The conditions noted are these: HEK-293 dox-inducible FGFR3, 1 hour compound, 100 ng/ml FGF-acidic. Type of experiment: cell-based. In short, it runs like this: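 Doxycycline-induced (1 μg/ml) HEK-293 cells expressing wild-type human FGFR3, treated 1 h with compound (1:3 series, top final 5 μM), then stimulated 5 min with 100 ng/ml FGF-acidic. Phospho-FGFR3 measured by ELISA (total FGFR3 capture, phosphotyrosine detection, OD 450 nm); IC50 from 4-parameter fit of POC values.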

Experiment [3] addresses FGFR3 (SEQ ID NO: 5, amino acids 449-759) (Homo sapiens (Human), UniProt P22607). As to the kind of experiment: LC/MS FGFR3 kobs assay (covalent protein modification). The conditions noted are these: 500 nM FGFR3, 3 μM compound. Type of experiment: binding. In short, it runs like this: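 Intact-mass LC/MS tracks covalent labeling of the kinase domain over time after acid quench (0.4% formic acid). Unmodified fraction, scaled to DMSO controls, is fitted as exponential decay; kobs is reported, averaged when measured more than once.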

Experiment [4] deals with recombinant human FGFR2 cytoplasmic domain (amino acids 403-822) (Homo sapiens (Human), UniProt P21802). Nature of the experiment: FGFR2 enzyme activity assay (LanthaScreen TR-FRET). The settings on record: 15 μM ATP, 20 min incubation at 22° C., average of multiple determinations if made, read-out: FGFR2 Enz FRET IC50. Type of experiment: biochemical. In short, it runs like this:
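His-tagged FGFR2 cytoplasmic domain ([…]) with 100 nM Alexa Fluor 647-poly-GT peptide and 15 μM ATP in HEPES/MgCl2/Triton buffer, pH 7.5, 2% DMSO, 20 min at 22 °C. EDTA-quenched, Eu-PY20 antibody added, TR-FRET read after 60 min.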

T1 sequence (P22607 23-806): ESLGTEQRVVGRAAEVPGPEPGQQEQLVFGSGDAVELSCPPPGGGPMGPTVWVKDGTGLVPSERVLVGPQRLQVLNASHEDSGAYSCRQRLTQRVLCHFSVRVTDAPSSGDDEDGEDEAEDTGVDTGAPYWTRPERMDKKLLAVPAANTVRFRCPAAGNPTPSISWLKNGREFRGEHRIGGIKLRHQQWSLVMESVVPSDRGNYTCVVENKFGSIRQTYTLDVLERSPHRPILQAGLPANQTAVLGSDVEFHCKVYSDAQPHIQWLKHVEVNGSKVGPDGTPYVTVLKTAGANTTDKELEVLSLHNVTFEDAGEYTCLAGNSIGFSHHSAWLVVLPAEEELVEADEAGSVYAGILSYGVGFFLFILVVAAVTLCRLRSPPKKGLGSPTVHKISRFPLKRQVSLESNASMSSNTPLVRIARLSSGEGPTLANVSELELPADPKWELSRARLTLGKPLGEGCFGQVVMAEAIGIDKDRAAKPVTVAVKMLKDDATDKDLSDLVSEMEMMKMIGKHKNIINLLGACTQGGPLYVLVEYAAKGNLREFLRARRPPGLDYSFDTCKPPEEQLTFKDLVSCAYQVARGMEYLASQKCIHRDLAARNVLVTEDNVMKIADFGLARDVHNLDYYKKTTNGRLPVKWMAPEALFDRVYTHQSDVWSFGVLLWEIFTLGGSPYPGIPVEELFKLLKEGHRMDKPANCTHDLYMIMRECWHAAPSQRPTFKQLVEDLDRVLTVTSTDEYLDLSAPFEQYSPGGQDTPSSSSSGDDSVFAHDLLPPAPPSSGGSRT
recombinant human FGFR2 cytoplasmic domain (amino acids 403-822), sequence (P21802 402-821): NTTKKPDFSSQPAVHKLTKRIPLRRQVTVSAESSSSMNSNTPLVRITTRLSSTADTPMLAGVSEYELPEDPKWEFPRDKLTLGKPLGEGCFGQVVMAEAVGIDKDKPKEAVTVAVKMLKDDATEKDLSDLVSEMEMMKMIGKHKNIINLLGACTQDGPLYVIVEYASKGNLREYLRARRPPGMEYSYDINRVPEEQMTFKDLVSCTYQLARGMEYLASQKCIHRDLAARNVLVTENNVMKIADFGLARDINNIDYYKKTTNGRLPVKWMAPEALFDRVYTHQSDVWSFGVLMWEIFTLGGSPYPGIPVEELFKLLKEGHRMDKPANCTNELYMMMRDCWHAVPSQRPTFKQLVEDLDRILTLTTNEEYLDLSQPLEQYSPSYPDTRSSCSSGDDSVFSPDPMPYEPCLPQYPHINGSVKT
FGFR3 (SEQ ID NO: 5, amino acids 449-759), sequence (P22607 449-759): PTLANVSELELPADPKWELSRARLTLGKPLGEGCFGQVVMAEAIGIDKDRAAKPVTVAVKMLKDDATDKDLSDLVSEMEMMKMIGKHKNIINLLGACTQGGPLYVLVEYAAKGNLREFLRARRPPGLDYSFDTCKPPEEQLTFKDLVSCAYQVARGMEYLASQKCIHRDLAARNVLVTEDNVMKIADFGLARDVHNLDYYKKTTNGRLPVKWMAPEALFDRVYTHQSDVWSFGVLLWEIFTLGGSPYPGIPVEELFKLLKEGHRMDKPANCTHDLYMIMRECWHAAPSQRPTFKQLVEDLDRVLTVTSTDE

As for `C=CC(=O)Nc1ccc(C(=O)N2CC[C@@H](n3cc(-c4cc(OC)c5c(C#N)cnn5c4)cn3)C2)cc1` [Example 55, (R)-N-(4-(3-(4-(3-cyano-4-methoxypyrazolo[1,5-a]pyridin-6-yl)-1H-pyrazol-1-yl)pyrrolidine-1-carbonyl)phenyl)acrylamide], the IC50 came to 71 nM in experiment [1], 64 nM in experiment [2] and 5 nM in experiment [4]. In experiment [3], the “FGFR3 Enz kobs” value is 0.0205 min⁻¹.
Regarding `C=CC(=O)N1CCC(C(=O)N2CCC(n3ncc(-c4cc(OC)c5c(C#N)cnn5c4)c3C)CC2)CC1` [Example 82, 6-(1-(1-(1-acryloylpiperidine-4-carbonyl)piperidin-4-yl)-5-methyl-1H-pyrazol-4-yl)-4-methoxypyrazolo[1,5-a]pyridine-3-carbonitrile], the concentration for half-maximal inhibition (IC50) stood at 853 nM in experiment [1], 814 nM in experiment [2] and 9 nM in experiment [4]. For the same molecule, the “FGFR3 Enz kobs” value in experiment [3] is 0.00319 min⁻¹.
Take `C=CC(=O)N1CC[C@@H](C(=O)N2CCC(n3ncc(-c4cc(OC)c5c(C#N)cnn5c4)c3C)CC2)C1` [Example 83, (R)-6-(1-(1-(1-acryloylpyrrolidine-3-carbonyl)piperidin-4-yl)-5-methyl-1H-pyrazol-4-yl)-4-methoxypyrazolo[1,5-a]pyridine-3-carbonitrile]: the values for the IC50 in experiment [1], in experiment [2] and in experiment [4] were 549 nM, 546 nM and 9 nM, respectively. For the same molecule, in experiment [3], the “FGFR3 Enz kobs” value was 0.00547 min⁻¹.
As for `C=CC(=O)N1CC(C(=O)N2CCC(n3ncc(-c4cc(OC)c5c(C#N)cnn5c4)c3C)CC2)C1` [Example 84, 6-(1-(1-(1-acryloylazetidine-3-carbonyl)piperidin-4-yl)-5-methyl-1H-pyrazol-4-yl)-4-methoxypyrazolo[1,5-a]pyridine-3-carbonitrile], the values for the IC50 in experiment [1], in experiment [2] and in experiment [4] were 108 nM, 77 nM and 15 nM, respectively. The “FGFR3 Enz kobs” value in experiment [3] worked out at 0.02394 min⁻¹.
With `C=CC(=O)N1CC(F)(C(=O)N2CCC(n3ncc(-c4cc(OC)c5c(C#N)cnn5c4)c3C)CC2)C1` [Example 85, 6-(1-(1-(1-acryloyl-3-fluoroazetidine-3-carbonyl)piperidin-4-yl)-5-methyl-1H-pyrazol-4-yl)-4-methoxypyrazolo[1,5-a]pyridine-3-carbonitrile], the figures for the IC50 in experiment [1], in experiment [2] and in experiment [4] were 19 nM, 16 nM and 13 nM, respectively. The “FGFR3 Enz kobs” value in experiment [3] stood at 0.1061 min⁻¹.
The corresponding values for `C=CC(=O)N1CC(C(=O)N2CCC(n3cc(-c4cc(OC)c5c(C#N)cnn5c4)c(C)n3)CC2)C1` [Example 94, 6-(1-(1-(1-acryloylazetidine-3-carbonyl)piperidin-4-yl)-3-methyl-1H-pyrazol-4-yl)-4-methoxypyrazolo[1,5-a]pyridine-3-carbonitrile] are 450 nM, 336 nM, 22 nM and 0.01518 min⁻¹.
Consider `C=CS(=O)(=O)Nc1cccc(C(=O)N2CCC(n3cc(-c4cc(OC)c5c(C#N)cnn5c4)cn3)CC2)c1` [Example 188, N-(3-(4-(4-(3-cyano-4-methoxypyrazolo[1,5-a]pyridin-6-yl)-1H-pyrazol-1-yl)piperidine-1-carbonyl)phenyl)eth-enesulfonamide], for which the half-maximal inhibitory concentration (IC50) stood at 19 nM in experiment [1], 24 nM in experiment [2] and 5 nM in experiment [4]. Further, the “FGFR3 Enz kobs” value in experiment [3] was 0.08524 min⁻¹.

For the origin of these results see patent US12180207B2 (ARRAY BIOPHARMA INC., priority 2018, dated 2024).
